From patent publication US9095589B2, “Chirally pure isomers of itraconazole for use as angiogenesis inhibitors” (Johns Hopkins University, priority 2007, dated 2015)
Entries after “also recorded” stand apart in the source; their conditions may differ. Like-named read-outs stand apart in the source and are kept apart here.

Tests used:
[1] = system: new blood vessel formation in Matrigel plugs; assay: Mouse Matrigel model of angiogenesis; assay type: in vivo; conditions: mice, 37.5 mg/kg i.p. once daily, Matrigel with VEGF and bFGF, 10 days
Protocol: To determine whether itraconazole inhibited angiogenesis in vivo, itraconazole was tested in a mouse Matrigel model. […] Female athymic nude 5-week old, 25-30 g mice were purchased from NO and treated in accordance with standard procedures. In all animal experiments the i.v. formulation of itraconazole was obtained from the Johns Hopkins Hospital Pharmacy. Control mice were treated with vehicle (40% hydroxypropyl-β-cyclodextrin, 2.5% propylene glycol, pH 4.5). Mice were pretreated for three days and then implanted subcutaneously with 0.5 mL of Matrigel (BD Biosciences) containing 100 ng/mL VEGF and 150 ng/mL bFGF. Drug treatment was continued daily for 10 days, mice were sacrificed, and plugs were harvested, fixed in neutral buffered formalin, and processed for histology using MAS-trichrome staining. A cross section of the entire Matrigel plug was photographed at 100× and erythrocyte-filled blood vessels were counted per field in a blinded manner. P-values comparing itraconazole versus vehicle treated mice were determined using the two-tailed Student's T-test; and the data are presented as mean±s.e.m.

[2] = system: human foreskin fibroblasts (HFF); assay: Human foreskin fibroblast proliferation (Calcein-AM); assay type: cell-based; conditions: 96 h with drug
Protocol: Human foreskin fibroblast (HFF) cells were cultured at passage 2 in DMEM low glucose, 10% fetal bovine serum, and 1% penicillin-streptomycin. Experiments were performed with 2,500 cells/well in 0.2 mL and incubated for 96 h with drug. Plates containing cells were washed once with PBS, incubated with 1 μM Calcein-AM (Molecular Probes) in PBS for 4 h, and read in a fluorescent plate reader. IC50 values were determined using four-parameter logarithmic analysis with GraphPad Prism and are presented as mean±s.e.m. for triplicate experiments.

BAEC [3] = assay: Cell cycle progression of BAEC; assay type: cell-based, bovine
BAEC [4] = assay: BAEC proliferation with or without free cholesterol ([3H]-thymidine); assay type: cell-based, bovine; conditions: for IC50: Bos taurus, DMEM 10% LPDS, 36 h
Protocol: BAEC were incubated in DMEM, 10% lipoprotein deficient serum (LPDS) with indicated concentrations of itraconazole (a) azalanstat (b) or TNP-470 (c) either alone or in combination with 40 μg/ml free cholesterol for 36 h. Cells were then pulsed with 1 μCi [^3H]-thymidine for 8 h before they are harvested for scintillation counting.
(§1) HUVEC were purchased from Cambrex Biosciences (Walkersvilie, Md.) and maintained in EGM-2 media (Cambrex) which contains VEGF, bFGF, and EGF. LPDS were purchased from Intracell. BAEC and Hela cells were maintained in DMEM media containing 10% FBS. Jurkat cells were maintained in RPMI media containing 10% FBS. In a typical experiment 5,000-10,000 cells/well in 0.2 mL EGM-2 media were allowed to adhere for 8 h and then incubated with drug for 36 h. Cells were pulsed with 1 μCi [^3H]-thymidine for 8 h (MP Biomedicals, 6.7 Ci/mmol), and harvested using trypsin onto glass fiber filters (Wallac, Turku, Finland). The readout was performed on a Perkin Elmer MicroBeta plate reader. Cells used were under five passages.
A hallmark of inhibitors of 14DM is that their potencies are dependent on the levels of cholesterol in cell culture medium. Thus, the potencies of both azalanstat and itraconazole in cell culture media either containing or lacking cholesterol was determined.

HUVEC [5] = assay: HUVEC proliferation assay ([3H]-thymidine incorporation); assay type: cell-based, human; conditions: for IC50: Homo sapiens, HUVEC
Protocol: as §1
Endothelial cells form the inner lining of all blood vessels and constitute an essential part of new as well as pre-existing blood vessels. An endothelial cell proliferation assay was utilized to screen our clinical drug library. The screen was carried out in 96-well plates with each drug at a final concentration of 10 μM. Thus, HUVEC were incubated with drugs for 36 h and proliferation was measured by following incorporation of [3H]-thymidine for the final 8 h. The preliminary screen identified 210 existing drugs with at least 50% inhibition at 10 μM, which belong to multiple drug classes (FIG. 1a).

HUVEC [6] = assay: HUVEC Proliferation Assay of itraconazole stereoisomers; assay type: cell-based, human
Protocol: HUVEC were plated in a 96-well plate at a density of 2000 cells/well 199 μL media. After recovering overnight, cells were incubated for 24 hours with drugs added from 200×DMSO stocks. Next, cells were incubated with 0.9 μCi of [^3H]-thymidine for 6 h, washed once with PBS, trypsinized, and transferred to filtermats (Wallac) using a Mach III M Harvester 96 (Tomtec). The filtermats were then dried overnight. Using a 1450 Microbeta apparatus (Wallac), the amount of [^3H] at each position on the filtermat was determined by scintillation counting. Counts from vehicle only treated controls were used to normalize for maximum proliferation. Experiments were conducted in triplicate with multiple technical replicates for each data point. A four parameter logistic regression was used to determine IC50 values (GraphPad Prism [v4.03]).
(§2) After the quality of all stereoisomers was confirmed, the potency of each stereoisomer against HUVEC proliferation and fungal growth was determined (FIG. 7). HUVEC were incubated with drug or vehicle alone for 24 hours and then pulsed for 6 hours with [^3H]-thymidine, the incorporation of which was taken as a readout of cell proliferation. Inhibition of fungal growth was assayed by incubating five yeast strains with 2-fold serial dilutions of each stereoisomer for 30-60 hours depending on the strain, and then measuring the OD600 of the culture to quantitate growth. The minimum concentration capable of inhibiting growth by 80% (MIC80) was determined.

HUVEC [7] = assay: HUVEC cell cycle analysis (propidium iodide, FACS); assay type: cell-based, human
Source text: To delineate the mechanism of inhibition of endothelial cell proliferation by itraconazole, the effect on the cell cycle progression of HUVEC by fixing and staining cells with propidium iodide followed by FACS analysis was examined.

C. neoformans H99 = assay: Fungal Susceptibility Assay (MIC80), C. neoformans; assay type: cell-based
Source text: (§3) Pooled HUVEC and EGM-2 bullet kits were purchased from Lonza. Powdered RPMI 1640 media with L-glutamine and without sodium bicarbonate was purchased from Gibco. Amino acids, uracil, and agar were purchased from Sigma and morpholinepropanesulfonic acid (MOPS) was purchased from Fisher. Dimethyl Sulfoxide (DMSO) was purchased from J. T. Baker. C. glabrata strains BG1 (J. Infect. Dis. 1996, 173, 425-431) and BG2 (Genetics 1999, 151, 979-987), C. neoformans H99 (Am. J. Pathol. 1980, 101, 177-193), S. cerevisiae BY4741 (MATa, ura3, his3, leu2, met15), and C. albicans (ATCC 10261) were used.
Fungi were grown overnight in 5 mL YES supplemented 225 mg/L adenine, histidine, leucine, uracil, and lysine (supplemented YES) at 30° C. with shaking. Cultures were diluted to 0.01 OD600 in RPMI (with L-glutamine, without sodium bicarbonate) which was supplemented with 2% glucose, 225 mg/L adenine, histidine, methionine, leucine, uracil, and lysine and buffered with 165 mM MOPS to 7.0 (complete RPMI). This solution was then further diluted 190-fold in complete RPMI in 96-well plates containing test compounds in a final volume of 150 μL. When practical, the intermediate RPMI dilution was bypassed and the overnight cultures were directly diluted to the appropriate OD600 in the RPMI solution that was added to the 96-well plates. Two-fold serial dilutions of the compounds were tested starting at 4 ug/mL with each well containing 0.125% vehicle (DMSO). The plates were incubated in a humidified environment at 30° C. with shaking for 30 hours except for experiments with C. neoformans which was incubated for 54 h. Abs600 was measured using a plate reader (Bio-Tek Synergy HT) after vigorous shaking for 45 seconds to resuspend the cells. The background absorbance from noninoculated wells was subtracted and the absorbance of test wells was divided by that of wells treated with vehicle alone. The percent of remaining growth for each drug concentration was averaged over 2-3 independent experiments, each with two technical replicates, and the minimum concentration giving 80% inhibition (MIC80) was determined.
as §2

five yeast strains = assay: Fungal Susceptibility Assays (MIC80); assay type: cell-based, C. glabrata, C. neoformans, S. cerevisiae, C. albicans; conditions: four out of five strains
Source text: as §3
Fungi were grown overnight in 5 mL YES supplemented 225 mg/L adenine, histidine, leucine, uracil, and lysine (supplemented YES) at 30° C. with shaking. […] Abs600 was measured using a plate reader (Bio-Tek Synergy HT) after vigorous shaking for 45 seconds to resuspend the cells. The background absorbance from noninoculated wells was subtracted and the absorbance of test wells was divided by that of wells treated with vehicle alone. […]
After the quality of all stereoisomers was confirmed, the potency of each stereoisomer against HUVEC proliferation and fungal growth was determined (FIG. 7). HUVEC were incubated with drug or vehicle alone for 24 hours and then pulsed for 6 hours with [^3H]-thymidine, the incorporation of which was taken as a readout of cell proliferation. […]

[8] = 40 μg/ml free cholesterol, read-out: IC50, endothelial cell proliferation in the presence of cholesterol
[9] = no cholesterol, read-out: IC50, endothelial cell proliferation in the absence of cholesterol

CCC(C)n1ncn(-c2ccc(N3CCN(c4ccc(OCC5COC(Cn6cncn6)(c6ccc(Cl)cc6Cl)O5)cc4)CC3)cc2)c1=O (racemic) [Itraconazole]
decrease in new blood vessel formation compared to vehicle-treated controls [1]: 67.5% | IC50 [2]: > 20000 nM | percentage of cells in G1 (BAEC [3]; Cholesterol): 66.2% | percentage of cells in G2/M (BAEC [3]; Cholesterol): 12.0% | percentage of cells in S (BAEC [3]; Cholesterol): 21.2% | percentage of cells in G1 (BAEC [3]; Control (no added cholesterol)): 77.0% | percentage of cells in G2/M (BAEC [3]; Control (no added cholesterol)): 12.0% | percentage of cells in S (BAEC [3]; Control (no added cholesterol)): 10.5% | IC50 (BAEC [4]; [8]): 230 nM | IC50 (BAEC [4]; [9]): 44 nM | IC50 (HUVEC [5]): 160 nM

CCC(C)n1ncn(-c2ccc(N3CCN(c4ccc(OC[C@@H]5CO[C@@](Cn6cncn6)(c6ccc(Cl)cc6Cl)O5)cc4)CC3)cc2)c1=O (single isomer, unassigned; diastereomer 4) [4R-cis diastereomer]
potency against HUVEC proliferation (HUVEC [6]): slightly more potent than the cis-4S isomer | fold more potent than the 4S-cis stereoisomer, HUVEC proliferation (HUVEC [5]): about 20 fold | IC50 (HUVEC [5]): 56 ± 10 nM

CCC(C)n1ncn(-c2ccc(N3CCN(c4ccc(OC[C@H]5CO[C@](Cn6cncn6)(c6ccc(Cl)cc6Cl)O5)cc4)CC3)cc2)c1=O (single isomer, unassigned; stereoisomer 4) [4S-cis stereoisomer]
effect on HUVEC cell cycle progression (HUVEC [7]): potently inhibits HUVEC cell cycle progression at the G1/S transition | IC50 (HUVEC [5]): 1100 ± 130 nM

Nc1ccc(SC[C@@H]2CO[C@](CCc3ccc(Cl)cc3)(Cn3ccnc3)O2)cc1 [Azalanstat]
percentage of cells in G1 (BAEC [3]; Cholesterol): 70.2% | percentage of cells in G2/M (BAEC [3]; Cholesterol): 10.0% | percentage of cells in S (BAEC [3]; Cholesterol): 19.4% | percentage of cells in G1 (BAEC [3]; Control (no added cholesterol)): 74.5% | percentage of cells in G2/M (BAEC [3]; Control (no added cholesterol)): 8.8% | percentage of cells in S (BAEC [3]; Control (no added cholesterol)): 16.8% | effect on HUVEC cell cycle progression (HUVEC [7]): blocked the cell cycle progression | IC50 (BAEC [4]; [8]): 1200 nM | IC50 (BAEC [4]; [9]): 310 nM

CC[C@H](C)n1ncn(-c2ccc(N3CCN(c4ccc(OC[C@@H]5CO[C@@](Cn6cncn6)(c6ccc(Cl)cc6Cl)O5)cc4)CC3)cc2)c1=O [Compound 23a, 4-(4-(4-(4-(((2S,4R)-2-((1H-1,2,4-triazol-1-yl)methyl)-2-(2,4-dichlorophenyl)-1,3-dioxolan-4-yl)methoxy)phenyl)piperazin-1-yl)phenyl)-1-((S)-sec-butyl)-1H-1,2,4-triazol-5(4H)-one]
potency against HUVEC proliferation (HUVEC [6]): greatest antiangiogenic potential | difference in potency between 23a and 23f (most and least potent), HUVEC proliferation (HUVEC [6]; 24 h with drug): greater than 4 fold

CC[C@@H](C)n1ncn(-c2ccc(N3CCN(c4ccc(OC[C@@H]5CO[C@@](Cn6cncn6)(c6ccc(Cl)cc6Cl)O5)cc4)CC3)cc2)c1=O [Compound 23b, 4-(4-(4-(4-(((2S,4R)-2-((1H-1,2,4-triazol-1-yl)methyl)-2-(2,4-dichlorophenyl)-1,3-dioxolan-4-yl)methoxy)phenyl)piperazin-1-yl)phenyl)-1-((R)-sec-butyl)-1H-1,2,4-triazol-5(4H)-one]
potency against HUVEC proliferation (HUVEC [6]): greatest antiangiogenic potential

CC[C@H](C)n1ncn(-c2ccc(N3CCN(c4ccc(OC[C@H]5CO[C@@](Cn6cncn6)(c6ccc(Cl)cc6Cl)O5)cc4)CC3)cc2)c1=O [Compound 23e, 4-(4-(4-(4-(((2S,4S)-2-((1H-1,2,4-triazol-1-yl)methyl)-2-(2,4-dichlorophenyl)-1,3-dioxolan-4-yl)methoxy)phenyl)piperazin-1-yl)phenyl)-1-((S)-sec-butyl)-1H-1,2,4-triazol-5(4H)-one]
fold less potent than 23g and 23h (C. neoformans H99): 2 fold | fold less potent than the best inhibitor (C. neoformans H99): 32 fold | antifungal potency (five yeast strains): roughly as potent as the cis-diastereomers; also recorded: about as potent as the cis diastereomers

CC[C@@H](C)n1ncn(-c2ccc(N3CCN(c4ccc(OC[C@H]5CO[C@@](Cn6cncn6)(c6ccc(Cl)cc6Cl)O5)cc4)CC3)cc2)c1=O [Compound 23f, 4-(4-(4-(4-(((2S,4S)-2-((1H-1,2,4-triazol-1-yl)methyl)-2-(2,4-dichlorophenyl)-1,3-dioxolan-4-yl)methoxy)phenyl)piperazin-1-yl)phenyl)-1-((R)-sec-butyl)-1H-1,2,4-triazol-5(4H)-one]
fold less potent than 23g and 23h (C. neoformans H99): 2 fold | fold less potent than the best inhibitor (C. neoformans H99): 32 fold | antifungal potency (five yeast strains): roughly as potent as the cis-diastereomers; also recorded: about as potent as the cis diastereomers

CO[C@@H]1[C@H](OC(=O)NC(=O)CCl)CC[C@]2(CO2)[C@H]1[C@@]1(C)O[C@@H]1CC=C(C)C [TNP-470]
potency on endothelial cell proliferation in absence versus presence of cholesterol (BAEC [4]; with or without 40 μg/ml free cholesterol): roughly equal potency
